Values joined by “and” are separate entries in the source; they are usually repeats but may differ in a detail not shown here. Equal values may be shown once.
Columns and labels:
[1] = glutathione crystals
Method: The crystals were observed and photographed using a VH-8000 digital microscope (Keyence Corporation). The width of approximately 300 crystals was measured and calculations performed.

[2] = glutathione crystals; volume median diameter
Method: (2) Average Particle Diameter
This is synonymous with volume median diameter, and it was measured using a laser diffraction and scattering particle diameter analyzer, the LMS-24 SK Laser Micron Sizer (Seishin Enterprise Co. Ltd.) and expressed as a cumulative 50% volume particle diameter.

[3] = 12 g crystals in 200 ml ionized water, 37° C., 120 rpm, time to complete dissolution
Method: 12 g of each of the crystals was put in to 200 ml of the ionized water maintained at a temperature of 37° C., and the time from injection to complete dissolution of the crystals when agitated at 120 rpm was measured.

Row | Compound | Average width [1] | Average particle diameter [2] [μm] | Dissolution time [3] [s]
1 | N[C@@H](CCC(=O)N[C@@H](CS)C(=O)NCC(=O)O)C(=O)O [Commercial product A] | 3 μm | 9 | 124
2 | N[C@@H](CCC(=O)N[C@@H](CS)C(=O)NCC(=O)O)C(=O)O [Example 1, gamma-L-glutamyl-L-cysteinyl glycine] | 25 μm | 52 | 
3 | N[C@@H](CCC(=O)N[C@@H](CS)C(=O)NCC(=O)O)C(=O)O [Example 2, gamma-L-glutamyl-L-cysteinyl glycine] | 14 μm and 7 μm |  | 
4 | N[C@@H](CCC(=O)N[C@@H](CS)C(=O)NCC(=O)O)C(=O)O [commercial product B] | 3 μm |  | 
5 | N[C@@H](CCC(=O)N[C@@H](CS)C(=O)NCC(=O)O)C(=O)O [commercial product C] | 3 μm |  | 

From patent US8188308B2 (Kyowa Hakko Bio Co., Ltd., priority 2006, dated 2012)
